Among the test systems are SNB-19 CNS; KM12 colon; K-562 leukemia; LOX IMVI melanoma; A549 NSCLC; CAKI-1 renal; MCF7 breast; SK-MEL-5 melanoma; T-47D breast; NCI-H460 lung.
Test in all cases: NCI-60 cell line screen, 48 h

Values joined by “and” are separate entries in the source; they are usually repeats but may differ in a detail not shown here. Identical values can stand only once.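 Interpolation was linear, between the two tested concentrations surrounding the appropriate level; five concentrations were tested over 48 hours in 96-well plates. GI50 marks 50% less growth. TGI marks complete inhibition of growth.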

For the compound `Oc1ccc2c3c1OC1c4[nH]ncc4C[C@H]4[C@@H](C2)N(CC2CC2)CC[C@]314` (some centres not stated), the TGI in the assay on SNB-19 CNS, in the assay with KM12 colon, with K-562 leukemia, in the assay on LOX IMVI melanoma, in the assay with A549 NSCLC and in the assay with CAKI-1 renal was > 100 µM each time. Besides, the TGI in the assay on MCF7 breast, with SK-MEL-5 melanoma, in the assay with T-47D breast and in the assay with NCI-H460 lung was > 100 µM each time.
Take `O=C(O)c1cc(=O)cc(C(=O)O)o1`: the GI50 with SNB-19 CNS, in the assay with KM12 colon, in the assay on K-562 leukemia, in the assay on LOX IMVI melanoma, with A549 NSCLC and in the assay on CAKI-1 renal was > 100 µM each time. Besides, the GI50 in the assay on MCF7 breast, with SK-MEL-5 melanoma, in the assay with T-47D breast and in the assay with NCI-H460 lung was > 100 µM throughout. Moreover, the TGI in the assay on SNB-19 CNS, in the assay with KM12 colon, with K-562 leukemia, with LOX IMVI melanoma, in the assay with A549 NSCLC and with CAKI-1 renal was > 100 µM in each case. Also, the TGI in the assay on MCF7 breast, in the assay on SK-MEL-5 melanoma, in the assay on T-47D breast and in the assay with NCI-H460 lung was > 100 µM each time.
As to `O=C(C=P(c1ccccc1)(c1ccccc1)c1ccccc1)CCl`, the GI50 in the assay on SNB-19 CNS was 3.55 µM; in the assay with KM12 colon it was 1.94 µM; in the assay on K-562 leukemia it was 0.844 µM; in the assay with LOX IMVI melanoma, 0.353 µM; with A549 NSCLC, 2.16 µM; in the assay with CAKI-1 renal it was 0.98 µM. Further, the GI50 is 0.403 µM with MCF7 breast, 1.45 µM in the assay on SK-MEL-5 melanoma, 1.04 µM with T-47D breast and 1.52 µM in the assay on NCI-H460 lung. Further, the TGI with SNB-19 CNS was 15.1 µM; in the assay on KM12 colon, 5.09 µM; with K-562 leukemia it was 9.12 µM; in the assay with LOX IMVI melanoma, 1.04 µM; in the assay on A549 NSCLC, 8.14 µM; in the assay with CAKI-1 renal, 2.81 µM. Moreover, the TGI with MCF7 breast amounted to 1.93 µM; in the assay on SK-MEL-5 melanoma, 2.83 µM; with T-47D breast it was 2.99 µM; with NCI-H460 lung it was 3.6 µM.
For `COCCOC1=CC(=O)c2c(O)ccc(O)c2C1=O`, the TGI with SNB-19 CNS is 3.82 µM; with KM12 colon, 3.54 µM and 11.7 µM; in the assay on K-562 leukemia it was 5.77 µM and 3.57 µM; with LOX IMVI melanoma it was 2.34 µM and 2.13 µM; with A549 NSCLC it was 4.15 µM and 3.78 µM; in the assay with CAKI-1 renal, 4.37 µM and 3.14 µM. Moreover, the TGI in the assay on MCF7 breast was 0.933 µM and 1.92 µM; in the assay with SK-MEL-5 melanoma it was 0.3 µM and 0.295 µM; with T-47D breast, 4.83 µM; with NCI-H460 lung, 3.11 µM and 4.2 µM. In addition, the GI50 with KM12 colon was 3.05 µM; with K-562 leukemia it was 1.4 µM; in the assay on LOX IMVI melanoma, 0.914 µM; with A549 NSCLC it was 1.74 µM; in the assay with CAKI-1 renal it was 1.68 µM; in the assay on MCF7 breast, 0.51 µM. Besides, the GI50 with NCI-H460 lung is 2.01 µM.
`Cc1cnc2oc3ccc(O)cc3c2c1-c1ccccc1`: the GI50 in the assay on SNB-19 CNS is 34.3 µM; in the assay on KM12 colon, > 100 µM; in the assay on K-562 leukemia, > 100 µM; with LOX IMVI melanoma, 21.6 µM; in the assay on A549 NSCLC, > 100 µM; in the assay on CAKI-1 renal, 58.6 µM. Also, the GI50 is 41 µM with MCF7 breast, 35.8 µM in the assay with SK-MEL-5 melanoma, 3.63 µM in the assay on T-47D breast and 19.7 µM with NCI-H460 lung. Also, the TGI in the assay with SNB-19 CNS, with KM12 colon, in the assay with K-562 leukemia, with LOX IMVI melanoma, with A549 NSCLC and in the assay with CAKI-1 renal was > 100 µM throughout. The TGI in the assay with MCF7 breast, in the assay on SK-MEL-5 melanoma, in the assay with T-47D breast and in the assay with NCI-H460 lung was > 100 µM throughout.
With `Cn1c(=O)nc2n(-c3ccc(Cl)cc3)c3cc(Cl)ccc3nc-2c1=O`, the TGI with SNB-19 CNS turned out to be 27.9 µM; with KM12 colon it was 25.6 µM; with K-562 leukemia it was 5.41 µM; in the assay on LOX IMVI melanoma it was 5.84 µM; in the assay on A549 NSCLC, 33 µM; in the assay with CAKI-1 renal, 20.7 µM. Moreover, the TGI came out at 2.8 µM with MCF7 breast, 3.07 µM with SK-MEL-5 melanoma, 2.03 µM in the assay with T-47D breast and 27.1 µM in the assay with NCI-H460 lung.
With `N#Cc1c(NC(=O)c2ccc(F)cc2)sc2c1CCCC2`, the GI50 in the assay with SNB-19 CNS, in the assay with KM12 colon, in the assay with K-562 leukemia, in the assay with LOX IMVI melanoma, in the assay with A549 NSCLC and in the assay with CAKI-1 renal was > 25 µM in each case. Also, the GI50 in the assay with MCF7 breast, in the assay with SK-MEL-5 melanoma, with T-47D breast and in the assay on NCI-H460 lung was > 25 µM in each case. Also, the TGI in the assay with SNB-19 CNS, with KM12 colon, in the assay with K-562 leukemia, with LOX IMVI melanoma, in the assay with A549 NSCLC and with CAKI-1 renal was > 25 µM in each case. Besides, the TGI in the assay with MCF7 breast, in the assay with SK-MEL-5 melanoma, with T-47D breast and in the assay on NCI-H460 lung was > 25 µM in each case.
With `COc1ccc(C(=NN=C(N)N)c2ccc(OC)cc2)cc1`, the GI50 with SNB-19 CNS is 3.72 µM; in the assay with KM12 colon, 2.31 µM; in the assay on K-562 leukemia, 3.7 µM; in the assay with LOX IMVI melanoma, 2.91 µM; in the assay with A549 NSCLC it was 4.91 µM; in the assay with CAKI-1 renal it was 5.75 µM. In addition, the GI50 in the assay with MCF7 breast was 2.89 µM; in the assay on SK-MEL-5 melanoma, 2.25 µM; in the assay on T-47D breast, 3.21 µM; with NCI-H460 lung, 3.04 µM. Further, the TGI in the assay on SNB-19 CNS was determined as 16.4 µM; with KM12 colon it was 8.41 µM; in the assay with K-562 leukemia, 15.4 µM; in the assay with LOX IMVI melanoma, 11.4 µM; in the assay with A549 NSCLC, 18.5 µM; in the assay on CAKI-1 renal it was 21 µM. The TGI was found to be 12.4 µM with MCF7 breast, 5.76 µM in the assay with SK-MEL-5 melanoma, 15.1 µM in the assay with T-47D breast and 11 µM in the assay on NCI-H460 lung.
On to `COc1cc(/C=C2\CCC/C(=C\c3ccc(O)c(OC)c3)C2=O)ccc1O`, for which the GI50 in the assay with SNB-19 CNS is 2.46 µM; in the assay with KM12 colon it was 1.25 µM; in the assay on K-562 leukemia, 2.71 µM; with LOX IMVI melanoma it was 1.46 µM; in the assay on A549 NSCLC, 1.96 µM; with CAKI-1 renal it was 1.88 µM. In addition, the GI50 was 2.1 µM with MCF7 breast, 1.54 µM in the assay with SK-MEL-5 melanoma, 1.91 µM in the assay with T-47D breast and 2.05 µM in the assay on NCI-H460 lung. Moreover, the TGI was 22.1 µM and 10.2 µM in the assay with SNB-19 CNS; 5.83 µM and 2.62 µM in the assay on KM12 colon; > 61 µM and 25.7 µM in the assay with K-562 leukemia; 3.49 µM and 2.83 µM with LOX IMVI melanoma; 10.8 µM and 5.04 µM with A549 NSCLC; 8.46 µM and 5.99 µM in the assay with CAKI-1 renal. The TGI was 40.5 µM and 9.81 µM in the assay with MCF7 breast; 6.82 µM and 3.09 µM in the assay on SK-MEL-5 melanoma; 12.2 µM and 7.41 µM with T-47D breast; 11.2 µM and 4.96 µM with NCI-H460 lung.
For `COc1cc(/C=C/c2cc(/C=C/c3ccc(O)c(OC)c3)n(C(=O)Nc3ccccc3Cl)n2)ccc1O`, the GI50 was 0.743 µM in the assay with SNB-19 CNS; 0.326 µM in the assay on KM12 colon; 0.301 µM in the assay with K-562 leukemia; 0.193 µM with LOX IMVI melanoma; 0.336 µM in the assay with A549 NSCLC; 0.222 µM with CAKI-1 renal. In addition, the GI50 is 0.29 µM in the assay on MCF7 breast, 0.299 µM in the assay with SK-MEL-5 melanoma, 0.821 µM in the assay on T-47D breast and 0.331 µM in the assay on NCI-H460 lung. Moreover, the TGI in the assay with SNB-19 CNS is 4.23 µM; in the assay on KM12 colon, 1.5 µM; in the assay with K-562 leukemia, 3.11 µM; with LOX IMVI melanoma, 1.39 µM; in the assay with A549 NSCLC it was 2.08 µM; in the assay with CAKI-1 renal, 1.21 µM. The TGI in the assay on MCF7 breast was found to be 1.4 µM; in the assay with SK-MEL-5 melanoma it was 1.22 µM; in the assay on T-47D breast, 2.79 µM; in the assay with NCI-H460 lung it was 1.25 µM.

(Values after PubChem BioAssay (NCI).)
